The numbers were not newly measured in publication PMC3667888 (Channels, 2013), which cites them from elsewhere.

The subject of this data set is Kv1 channels. The note with it: applied externally; cited from earlier work.

For the compound `CCCCC/C=C\C/C=C\C/C=C\C/C=C\CCCC(=O)NCCO` [AEA, anandamide], the “inhibition of Kv1 channels by anandamide” value is reported as “not inhibited”.
